The text below walks through data of the supplement of paper PMC12513837.

± gives the standard deviation of the averaged measurements.

Compound in the assay: CC(=O)N1CCc2c(c(N3CCCc4cc(-c5cnn(C)c5)c(C(F)F)cc43)nn2C2CCC(CN3CCN(c4ccc5c(c4)C(=O)N(C4CCC(=O)NC4=O)C5=O)CC3)CC2)C1 [CBPD-409]
The assay is described as follows: AUC of viability dose-response curve (relative to vehicle, 8 doses up to 10 µM) (fraction); higher = less sensitive (more viable); extreme values may be limits of the assay. As to the method:
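PRISM multiplexed pooled barcoded cell line viability screen at the Broad Institute, 887 cancer cell lines treated with CBPD-409 (p300/CBP PROTAC degrader) at 8 concentrations in threefold dilution, top dose 10 µM. The read-out is the area under the dose-response curve of relative viability versus vehicle (n=3). AUC < 0.3 is called strongly sensitive and AUC > 0.8 resistant.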

Take COLO320_LARGE_INTESTINE: the “AUC of viability dose-response curve” value amounted to 1.

Regarding COLO668_LUNG, the “AUC of viability dose-response curve” value amounted to 0.615.

On to COLO679_SKIN, for which the “AUC of viability dose-response curve” value was determined as 0.3.

In the case of COLO680N_OESOPHAGUS, the “AUC of viability dose-response curve” value was determined as 0.653.

As to COLO741_SKIN, the “AUC of viability dose-response curve” value worked out at 0.559.

COLO783_SKIN: the “AUC of viability dose-response curve” value worked out at 0.837.

COLO792_SKIN: the “AUC of viability dose-response curve” value was 0.804.

Regarding COLO800_SKIN, the “AUC of viability dose-response curve” value was 0.67.

On to CORL23_LUNG, for which the “AUC of viability dose-response curve” value stood at 1.

In the case of CORL88_LUNG, the “AUC of viability dose-response curve” value turned out to be 0.612.

With CORL105_LUNG, the “AUC of viability dose-response curve” value was found to be 0.747.

Take CORL279_LUNG: the “AUC of viability dose-response curve” value turned out to be 1.

For the test system COV318_OVARY, the “AUC of viability dose-response curve” value was 0.899.

As to COV362_OVARY, the “AUC of viability dose-response curve” value is 0.887.

For COV434_OVARY, the “AUC of viability dose-response curve” value turned out to be 0.556.

As to COV644_OVARY, the “AUC of viability dose-response curve” value is 0.92.

In the case of CW2_LARGE_INTESTINE, the “AUC of viability dose-response curve” value amounted to 1.

On to CW9019_SOFT_TISSUE, for which the “AUC of viability dose-response curve” value came out at 0.735.

Turning to DANG_PANCREAS, the “AUC of viability dose-response curve” value stood at 1.

With DAOY_CENTRAL_NERVOUS_SYSTEM, the “AUC of viability dose-response curve” value is 0.958 ± 0.059.

With DBTRG05MG_CENTRAL_NERVOUS_SYSTEM, the “AUC of viability dose-response curve” value turned out to be 0.854.

Take DEL_HAEMATOPOIETIC_AND_LYMPHOID_TISSUE: the “AUC of viability dose-response curve” value was found to be 1.

Consider DETROIT562_UPPER_AERODIGESTIVE_TRACT, for which the “AUC of viability dose-response curve” value worked out at 0.68.

Consider DKMG_CENTRAL_NERVOUS_SYSTEM, for which the “AUC of viability dose-response curve” value was 0.733.

In the case of DL_SOFT_TISSUE, the “AUC of viability dose-response curve” value turned out to be 0.471.

Turning to DMS53_LUNG, the “AUC of viability dose-response curve” value stood at 0.475.

As to DMS273_LUNG, the “AUC of viability dose-response curve” value is 0.976.

As for “DND41_HAEMATOPOIETIC_AND_LYMPHOID_TISSUE”, the “AUC of viability dose-response curve” value amounted to 0.567.

For “DOHH2_HAEMATOPOIETIC_AND_LYMPHOID_TISSUE”, the “AUC of viability dose-response curve” value amounted to 0.468.

In the case of DOTC24510_CERVIX, the “AUC of viability dose-response curve” value amounted to 0.344.

On to DU145_PROSTATE, for which the “AUC of viability dose-response curve” value turned out to be 0.946.

In the case of DU4475_BREAST, the “AUC of viability dose-response curve” value worked out at 0.831.

Take DV90_LUNG: the “AUC of viability dose-response curve” value turned out to be 0.588.

As to EB1_HAEMATOPOIETIC_AND_LYMPHOID_TISSUE, the “AUC of viability dose-response curve” value was found to be 1.

For EBC1_LUNG, the “AUC of viability dose-response curve” value came out at 0.537.

For ECC2_BILIARY_TRACT, the “AUC of viability dose-response curve” value was found to be 0.402.

Regarding ECGI10_OESOPHAGUS, the “AUC of viability dose-response curve” value was determined as 0.903.

As for EFE184_ENDOMETRIUM, the “AUC of viability dose-response curve” value was 0.79.

In the case of EFM19_BREAST, the “AUC of viability dose-response curve” value is 0.575.

For the test system EFM192A_BREAST, the “AUC of viability dose-response curve” value is 0.645.

As to EFO21_OVARY, the “AUC of viability dose-response curve” value was found to be 0.764.

Turning to EFO27_OVARY, the “AUC of viability dose-response curve” value stood at 1.

Turning to EGI1_BILIARY_TRACT, the “AUC of viability dose-response curve” value worked out at 0.872.

Take EKVX_LUNG: the “AUC of viability dose-response curve” value stood at 1.

On to EM2_HAEMATOPOIETIC_AND_LYMPHOID_TISSUE, for which the “AUC of viability dose-response curve” value amounted to 0.613.

As for EMTOKA_ENDOMETRIUM, the “AUC of viability dose-response curve” value is 0.825.

Consider EOL1_HAEMATOPOIETIC_AND_LYMPHOID_TISSUE, for which the “AUC of viability dose-response curve” value amounted to 0.207.

Take ES2_OVARY: the “AUC of viability dose-response curve” value is 0.986.

For ESS1_ENDOMETRIUM, the “AUC of viability dose-response curve” value is 0.901.

Turning to EW8_BONE, the “AUC of viability dose-response curve” value is 0.946.

As to EWS502_BONE, the “AUC of viability dose-response curve” value turned out to be 0.749 ± 0.15.

Turning to FADU_UPPER_AERODIGESTIVE_TRACT, the “AUC of viability dose-response curve” value came out at 0.844.

Take FLO1_OESOPHAGUS: the “AUC of viability dose-response curve” value was found to be 0.731.

In the case of FTC133_THYROID, the “AUC of viability dose-response curve” value came out at 0.549.

Regarding FTC238_THYROID, the “AUC of viability dose-response curve” value was found to be 0.734.

As for G292CLONEA141B1_BONE, the “AUC of viability dose-response curve” value is 0.585 ± 0.31.

On to G361_SKIN, for which the “AUC of viability dose-response curve” value amounted to 0.186.

In the case of G402_SOFT_TISSUE, the “AUC of viability dose-response curve” value was determined as 0.514 ± 0.18.

For the test system G415_BILIARY_TRACT, the “AUC of viability dose-response curve” value is 0.902.

With GAMG_CENTRAL_NERVOUS_SYSTEM, the “AUC of viability dose-response curve” value came to 0.77.

In the case of GB1_CENTRAL_NERVOUS_SYSTEM, the “AUC of viability dose-response curve” value was 0.595.

Turning to GB2_BILIARY_TRACT, the “AUC of viability dose-response curve” value was determined as 0.826.

For the test system GCIY_STOMACH, the “AUC of viability dose-response curve” value stood at 0.542.

Take GCT27_TESTIS: the “AUC of viability dose-response curve” value is 0.696.

As for GCT_SOFT_TISSUE, the “AUC of viability dose-response curve” value was 0.541.

As for GDM1_HAEMATOPOIETIC_AND_LYMPHOID_TISSUE, the “AUC of viability dose-response curve” value came to 0.877.

Take GI1_CENTRAL_NERVOUS_SYSTEM: the “AUC of viability dose-response curve” value came to 0.602.

On to GIMEN_AUTONOMIC_GANGLIA, for which the “AUC of viability dose-response curve” value turned out to be 0.616.

As for GOS3_CENTRAL_NERVOUS_SYSTEM, the “AUC of viability dose-response curve” value turned out to be 0.79.

For the test system GP2D_LARGE_INTESTINE, the “AUC of viability dose-response curve” value amounted to 0.847.

With GP5D_LARGE_INTESTINE, the “AUC of viability dose-response curve” value is 1.

For GSS_STOMACH, the “AUC of viability dose-response curve” value amounted to 0.349.

On to GSU_STOMACH, for which the “AUC of viability dose-response curve” value came to 0.326.

As for H4_CENTRAL_NERVOUS_SYSTEM, the “AUC of viability dose-response curve” value stood at 0.625.

As for H103_UPPER_AERODIGESTIVE_TRACT, the “AUC of viability dose-response curve” value was determined as 0.997.

Take H157_UPPER_AERODIGESTIVE_TRACT: the “AUC of viability dose-response curve” value is 0.993.

H357_UPPER_AERODIGESTIVE_TRACT: the “AUC of viability dose-response curve” value came out at 0.815.

Consider H376_UPPER_AERODIGESTIVE_TRACT, for which the “AUC of viability dose-response curve” value came to 0.862.

For H413_UPPER_AERODIGESTIVE_TRACT, the “AUC of viability dose-response curve” value was 0.842.

Take HA1E_KIDNEY: the “AUC of viability dose-response curve” value was found to be 0.542.

Regarding HAC2_OVARY, the “AUC of viability dose-response curve” value worked out at 1.

Take HARA_LUNG: the “AUC of viability dose-response curve” value was 0.981.

With HCA1_CERVIX, the “AUC of viability dose-response curve” value is 0.811.

As for HCC15_LUNG, the “AUC of viability dose-response curve” value came to 1.

As to HCC38_BREAST, the “AUC of viability dose-response curve” value was 0.323.

Take HCC44_LUNG: the “AUC of viability dose-response curve” value was 1.

With HCC56_LARGE_INTESTINE, the “AUC of viability dose-response curve” value was 0.809.

In the case of HCC78_LUNG, the “AUC of viability dose-response curve” value came out at 0.807.

For the test system HCC95_LUNG, the “AUC of viability dose-response curve” value was 1.

Turning to HCC515_LUNG, the “AUC of viability dose-response curve” value was found to be 0.612.

As to HCC827_LUNG, the “AUC of viability dose-response curve” value is 0.731.

As for HCC1143_BREAST, the “AUC of viability dose-response curve” value came out at 0.623.

In the case of HCC1195_LUNG, the “AUC of viability dose-response curve” value is 1.

For HCC1359_LUNG, the “AUC of viability dose-response curve” value was 1.

As for HCC1395_BREAST, the “AUC of viability dose-response curve” value was found to be 0.783.

As for HCC1419_BREAST, the “AUC of viability dose-response curve” value was 0.122.

As to HCC1428_BREAST, the “AUC of viability dose-response curve” value worked out at 0.667.

For HCC1438_LUNG, the “AUC of viability dose-response curve” value was 0.893.

Turning to HCC1806_BREAST, the “AUC of viability dose-response curve” value worked out at 1.

HCC1937_BREAST: the “AUC of viability dose-response curve” value came out at 0.957.

HCC1954_BREAST: the “AUC of viability dose-response curve” value is 1.

Regarding HCC2108_LUNG, the “AUC of viability dose-response curve” value is 0.793.

With HCC4006_LUNG, the “AUC of viability dose-response curve” value stood at 1.

For the test system HCSC1_CERVIX, the “AUC of viability dose-response curve” value came out at 0.357.

HCT15_LARGE_INTESTINE: the “AUC of viability dose-response curve” value stood at 0.354.

With HCT116_LARGE_INTESTINE, the “AUC of viability dose-response curve” value was 0.998.

Take HDMB03_CENTRAL_NERVOUS_SYSTEM: the “AUC of viability dose-response curve” value was determined as 0.453.

Take HDQP1_BREAST: the “AUC of viability dose-response curve” value was determined as 0.853.

As to HEC1A_ENDOMETRIUM, the “AUC of viability dose-response curve” value stood at 0.407.

Turning to HEC1B_ENDOMETRIUM, the “AUC of viability dose-response curve” value was 0.998.

HEC1_ENDOMETRIUM: the “AUC of viability dose-response curve” value was determined as 1.

Regarding HEC6_ENDOMETRIUM, the “AUC of viability dose-response curve” value stood at 0.645.

Take HEC50B_ENDOMETRIUM: the “AUC of viability dose-response curve” value turned out to be 0.851.

With HEC59_ENDOMETRIUM, the “AUC of viability dose-response curve” value is 0.677.

As for HEC108_ENDOMETRIUM, the “AUC of viability dose-response curve” value was determined as 0.693.

Turning to HEC116_ENDOMETRIUM, the “AUC of viability dose-response curve” value was 0.78.

Consider HEC151_ENDOMETRIUM, for which the “AUC of viability dose-response curve” value worked out at 1.

As to HEC251_ENDOMETRIUM, the “AUC of viability dose-response curve” value was found to be 0.841.

Regarding HEC265_ENDOMETRIUM, the “AUC of viability dose-response curve” value is 0.695.

With “HEL9217_HAEMATOPOIETIC_AND_LYMPHOID_TISSUE”, the “AUC of viability dose-response curve” value was determined as 0.229.

With HEL_HAEMATOPOIETIC_AND_LYMPHOID_TISSUE, the “AUC of viability dose-response curve” value was found to be 0.267.

For HEP3B217_LIVER, the “AUC of viability dose-response curve” value turned out to be 0.4.

As for HEPG2_LIVER, the “AUC of viability dose-response curve” value was found to be 1.
